Reference: patent US20260035365A1, “1H-PYRROLO[3,2-B]PYRIDINE DERIVATIVES AS IRREVERSIBLE INHIBITORS OF MUTANT EGFR FOR THE TREATMENT OF CANCER” (Bayer Aktiengesellschaft, priority 2022, published 2026)

Key:
[1] = target: mutEGFR (D770_N771insSVD) (Homo sapiens, UniProt P00533, INS767SVD); assay: Exon20-mutant-EGFR (D770_N771insSVD) TR-FRET kinase assay; type: biochemical; conditions: 2 mM ATP, 15 min preincubation
Description: Inhibitory activity of compounds of the present invention against an Epidermal Growth Factor Receptor (EGFR) with an insertion of the amino acids sequence SVD between D770 and N771 (SEQ ID No. 5) was quantified employing the TR-FRET based kinase activity assay as described in the following paragraphs.
A recombinant fusion protein of N-terminal Glutathion-S-Transferase (GST) and a fragment of human EGFR variant (amino acids R669 to A1210 with insertion of the amino acids sequence SVD between D770 and N771 (SEQ ID No. 5) (“EGFR ins SVD”), expressed in Sf9 insect cells and purified via affinity chromatography using Glutathion Sepharose as described above, was used as a kinase. As substrate for the kinase reaction the biotinylated peptide biotin-Ahx-AEEEEYFELVAKKK (C-terminus in amide form) (SEQ ID No. 6) was used which can be purchased e.g. form the company Biosynthan GmbH (Berlin-Buch, Germany).
For the assay 50 nl of a 100-fold concentrated solution of the test compound in DMSO was pipetted into either a black low volume 384 well microtiter plate or a black 1536 well microtiter plate (both Greiner Bio-One, Frickenhausen, Germany), 2 μl of a solution of EGFR in aqueous assay buffer [50 mM Hepes pH 7.0, 10 mM MgCl2, 1 mM dithiothreitol, 0.5 mM EGTA, 0.3 mM activated sodium ortho-vanadate, 0.005% (w/v) bovine serum albumin, 0.005% (v/v) Tween-20] were added and the mixture was incubated for 15 min at 22° C. to allow pre binding of the test compounds to the enzyme before the start of the kinase reaction. […] The concentration of EGFR was adjusted depending of the activity of the enzyme lot and was chosen appropriate to have the assay in the linear range, typical concentration was 15 pg/μl. The reaction was stopped by the addition of 3 μl of a solution of HTRF detection reagents (83.3 nM streptavidine-XL665 [Cisbio Bioassays, Codolet, France] and 1.67 nM PT66-Tb-Cryptate, a terbium-cryptate labelled anti-phospho-tyrosine antibody from Cisbio Bioassays [instead of the PT66 Tb cryptate PT66 Eu Chelate from Perkin Elmer can also be used]) in an aqueous EDTA-solution (133.3 mM EDTA, 0.2% (w/v) bovine serum albumin in 50 mM HEPES pH 7.5).
The resulting mixture was incubated 1 h at 22° C. to allow the binding of the biotinylated phosphorylated peptide to the streptavidine-XL665 and the PT66-Tb-Cryptate. Subsequently, the amount of phosphorylated substrate was evaluated by measurement of the resonance energy transfer from the PT66-Tb-Cryptate to the streptavidine-XL665. Therefore, the fluorescence emissions at 620 nm and 665 nm after excitation at 337 nm were measured in a HTRF reader, e.g. a Pherastar (BMG Labtechnologies, Offenburg, Germany) or a Viewlux (Perkin-Elmer). The ratio of the emissions at 665 nm and at […] was taken as the measure for the amount of phosphorylated substrate. The data were normalised (enzyme reaction without inhibitor=0% inhibition, all other assay components but no enzyme=100% inhibition).

[2] = target: mutEGFR (D770_N771insNPG, T790); assay: mutEGFR (D770_N771insNPG, T790) kinase assay; type: biochemical, human
BA/F3 (insSVD) cells = assay: Ba/F3 cell survival assay (Cell Titer-Glo), EGFR-insSVD; type: cell-based; conditions: Mus musculus, BaF3, 48 h, without IL-3, with EGF
Description: 293T cells from ATCC were transfected with pBABEpuro expression constructs for WT EGFR or EGFR-insSVD, or EGFR-insSVD T790M, and pCL-Eco packaging vector using Fugene-6 transfection reagent from Promega. Plates were incubated at 37° C. for 48 h. Retrovirus was harvested by filtering the media supernatant through a 0.45 μm filter.
Ba/F3 cells purchased from DSMZ were grown in RPMI+10% FBS+10 ng/mL IL-3 and infected with filtered retroviral supernatant at a 1:2 dilution. Polybrene was added to a concentration of 8 μg/mL, plates were spun for 90 min, and incubated for 16 h at 37° C. 2 μg/mL puromycin was added to the infected cells 24 h after infection and cells were continually grown in the presence of puromycin and 10 ng/mL IL-3. Following stably expressing Ba/F3 cell lines were generated: Ba/F3-EGFR-WT, Ba/F3-EGFR-insSVD, Ba/F3-EGFR-insSVD T790M, (Ba/F3-vector-control).
For cell survival assays, Ba/F3 cells were grown to a density of 1-2 million cells per mL, spun down and resuspended in media without IL-3, and replated at a concentration of 200,000-500,000 cells per mL. The cells ectopically expressing WT EGFR, EGFR-insSVD, or EGFR-insSVD T790M were plated with 10 ng/mL Millipore Culture grade EGF. The cells ectopically expressing pBABEpuro empty vector were plated with 10 ng/mL IL-3.
2 days later, cells were plated in 50 μL in a 384 well plate at a concentration of 4000 cells per well for cells assayed in the absence of IL-3 and 2000 cells per well for cells assayed in the presence of IL-3. 100 nL of compound was added to each well using a 100 nL pin head, and plates were incubated at 37° C. for 48 h.
Cell viability was measured by adding 20 μL of Cell Titer-Glo Luminescent Cell Viability Reagent diluted 1:3 in PBS. Plates were sealed with Perkin Elmer Top-Seal, inverted several times to mix, and immediately centrifuged at 1000 rpm for 2 min. Plates were incubated in low light conditions for 8-10 min and luminescence was measured.

mutEGFR (D770_N771insNPG, T790), sequence (P00533 with tags, fused parts or gaps INS770NPG limits assumed): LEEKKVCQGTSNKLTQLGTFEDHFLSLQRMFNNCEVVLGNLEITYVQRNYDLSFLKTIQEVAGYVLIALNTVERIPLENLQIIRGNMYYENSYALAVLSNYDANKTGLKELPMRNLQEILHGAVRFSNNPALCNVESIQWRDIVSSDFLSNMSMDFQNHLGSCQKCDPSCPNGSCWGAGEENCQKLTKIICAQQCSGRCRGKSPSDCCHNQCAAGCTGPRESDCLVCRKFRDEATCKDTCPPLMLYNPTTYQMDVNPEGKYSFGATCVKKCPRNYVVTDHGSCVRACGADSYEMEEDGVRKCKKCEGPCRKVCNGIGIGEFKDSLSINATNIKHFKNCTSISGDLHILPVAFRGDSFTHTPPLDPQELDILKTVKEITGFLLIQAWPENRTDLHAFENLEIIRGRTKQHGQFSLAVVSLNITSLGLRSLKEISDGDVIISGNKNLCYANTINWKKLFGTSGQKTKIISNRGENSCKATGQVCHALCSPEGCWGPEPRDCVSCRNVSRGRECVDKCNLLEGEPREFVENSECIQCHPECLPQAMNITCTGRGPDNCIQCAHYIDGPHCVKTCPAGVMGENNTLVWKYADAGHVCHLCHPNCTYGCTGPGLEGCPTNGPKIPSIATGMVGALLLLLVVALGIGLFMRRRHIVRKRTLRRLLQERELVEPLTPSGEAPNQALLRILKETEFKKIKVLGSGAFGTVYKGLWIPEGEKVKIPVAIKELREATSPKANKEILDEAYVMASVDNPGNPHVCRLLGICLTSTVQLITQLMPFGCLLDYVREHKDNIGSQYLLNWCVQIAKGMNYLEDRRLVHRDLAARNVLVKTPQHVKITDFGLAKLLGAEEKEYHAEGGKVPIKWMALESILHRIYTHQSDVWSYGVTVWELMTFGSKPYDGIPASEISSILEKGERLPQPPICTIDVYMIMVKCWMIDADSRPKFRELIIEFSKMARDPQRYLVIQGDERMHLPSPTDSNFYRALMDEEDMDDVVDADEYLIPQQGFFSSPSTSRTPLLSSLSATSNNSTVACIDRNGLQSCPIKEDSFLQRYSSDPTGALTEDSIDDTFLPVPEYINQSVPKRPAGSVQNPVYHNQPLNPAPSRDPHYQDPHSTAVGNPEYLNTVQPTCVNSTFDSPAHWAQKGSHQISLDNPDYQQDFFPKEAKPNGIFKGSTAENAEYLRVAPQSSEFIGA
mutEGFR (D770_N771insSVD), sequence (P00533 with tags, fused parts or gaps INS767SVD limits assumed): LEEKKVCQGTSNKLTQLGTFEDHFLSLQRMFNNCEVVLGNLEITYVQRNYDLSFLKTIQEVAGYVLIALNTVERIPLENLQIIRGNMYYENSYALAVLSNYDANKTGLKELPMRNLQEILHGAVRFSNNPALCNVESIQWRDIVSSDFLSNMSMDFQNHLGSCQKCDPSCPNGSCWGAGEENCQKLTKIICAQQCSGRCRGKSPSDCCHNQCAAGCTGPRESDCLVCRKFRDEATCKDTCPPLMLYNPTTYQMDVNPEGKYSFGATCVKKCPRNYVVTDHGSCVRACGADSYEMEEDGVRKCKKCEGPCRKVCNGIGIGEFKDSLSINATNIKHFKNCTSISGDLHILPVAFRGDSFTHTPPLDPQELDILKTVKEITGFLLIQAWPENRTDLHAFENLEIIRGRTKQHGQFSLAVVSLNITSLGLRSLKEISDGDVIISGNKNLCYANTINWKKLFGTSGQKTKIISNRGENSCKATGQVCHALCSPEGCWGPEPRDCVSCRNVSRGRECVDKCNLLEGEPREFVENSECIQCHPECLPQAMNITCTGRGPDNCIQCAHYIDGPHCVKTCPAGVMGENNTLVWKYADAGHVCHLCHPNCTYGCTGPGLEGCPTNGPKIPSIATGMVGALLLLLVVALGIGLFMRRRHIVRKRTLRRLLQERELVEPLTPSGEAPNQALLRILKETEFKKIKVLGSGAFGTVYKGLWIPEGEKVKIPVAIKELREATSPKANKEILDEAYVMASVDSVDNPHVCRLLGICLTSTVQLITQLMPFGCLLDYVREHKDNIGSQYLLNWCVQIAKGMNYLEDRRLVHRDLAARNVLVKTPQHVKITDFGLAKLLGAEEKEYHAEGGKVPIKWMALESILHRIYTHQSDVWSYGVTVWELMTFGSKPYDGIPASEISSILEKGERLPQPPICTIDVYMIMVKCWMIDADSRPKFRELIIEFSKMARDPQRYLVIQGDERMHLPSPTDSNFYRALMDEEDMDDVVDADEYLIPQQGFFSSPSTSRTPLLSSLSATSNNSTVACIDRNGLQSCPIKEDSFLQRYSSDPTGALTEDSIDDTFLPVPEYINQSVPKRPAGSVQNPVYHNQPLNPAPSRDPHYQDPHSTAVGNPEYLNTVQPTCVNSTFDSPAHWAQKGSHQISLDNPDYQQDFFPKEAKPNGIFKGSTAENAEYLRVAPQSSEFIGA

SMILES	IC50 [1]	IC50 [2]	IC50 (BA/F3 (insSVD) cells)
C=CC(=O)N1CCC(Oc2cnccc2-c2[nH]c3cccnc3c2-c2ccccc2)C1 (racemic) [Example 116, 1-[(3RS)-3-{[4-(3-phenyl-1H-pyrrolo[3,2-b]pyridin-2-yl)pyridin-3-yl]oxy}pyrrolidin-1-yl]prop-2-en-1-one]	52.4 nM	215 nM	1520 nM
C#CC(=O)N1CCC(Oc2cnccc2-c2[nH]c3cccnc3c2-c2ccccc2)C1 (racemic) [Example 117, 1-[(3RS)-3-{[4-(3-phenyl-1H-pyrrolo[3,2-b]pyridin-2-yl)pyridin-3-yl]oxy}pyrrolidin-1-yl]prop-2-yn-1-one]	90.2 nM	296 nM	4430 nM
C=CS(=O)(=O)N1CCC(Oc2cnccc2-c2[nH]c3cccnc3c2-c2ccccc2)C1 (racemic) [Example 118, 2-(3-{[(3RS)-1-(ethenesulfonyl)pyrrolidin-3-yl]oxy}pyridin-4-yl)-3-phenyl-1H-pyrrolo[3,2-b]pyridine]	16.8 nM	79.9 nM	723 nM
C=CC(=O)N1CCC(Oc2cnccc2-c2[nH]c3cccnc3c2-c2cccc(Cl)c2)C1 (racemic) [Example 119, 1-[(3RS)-3-({4-[3-(3-chlorophenyl)-1H-pyrrolo[3,2-b]pyridin-2-yl]pyridin-3-yl}oxy)pyrrolidin-1-yl]prop-2-en-1-one]	14 nM	58 nM	549 nM
C#CC(=O)N1CCC(Oc2cnccc2-c2[nH]c3cccnc3c2-c2cccc(Cl)c2)C1 (racemic) [Example 120, 1-[(3RS)-3-({4-[3-(3-chlorophenyl)-1H-pyrrolo[3,2-b]pyridin-2-yl]pyridin-3-yl}oxy)pyrrolidin-1-yl]prop-2-yn-1-one]	38.5 nM	98.7 nM	1190 nM
C=CS(=O)(=O)N1CCC(Oc2cnccc2-c2[nH]c3cccnc3c2-c2cccc(Cl)c2)C1 (racemic) [Example 121, 3-(3-chlorophenyl)-2-(3-{[(3RS)-1-(ethenesulfonyl)pyrrolidin-3-yl]oxy}pyridin-4-yl)-1H-pyrrolo[3,2-b]pyridine]	6.91 nM	18 nM	497 nM
C=CC(=O)N1CCC(Oc2cnccc2-c2[nH]c3cccnc3c2-c2cccc(C(F)(F)F)c2)C1 (racemic) [Example 122, 1-{(3RS)-3-[(4-{3-[3-(trifluoromethyl)phenyl]-1H-pyrrolo[3,2-b]pyridin-2-yl}pyridin-3-yl)oxy]pyrrolidin-1-yl}prop-2-en-1-one]	123 nM	775 nM	2590 nM
C#CC(=O)N1CCC(Oc2cnccc2-c2[nH]c3cccnc3c2-c2cccc(C(F)(F)F)c2)C1 (racemic) [Example 123, 1-{(3RS)-3-[(4-{3-[3-(trifluoromethyl)phenyl]-1H-pyrrolo[3,2-b]pyridin-2-yl}pyridin-3-yl)oxy]pyrrolidin-1-yl}prop-2-yn-1-one]	173 nM	701 nM	832 nM
C=CC(=O)N1CCC(Oc2cnccc2-c2[nH]c3cccnc3c2-c2cc(C)ccc2F)C1 (racemic) [Example 124, 1-[(3RS)-3-({4-[3-(2-fluoro-5-methylphenyl)-1H-pyrrolo[3,2-b]pyridin-2-yl]pyridin-3-yl}oxy)pyrrolidin-1-yl]prop-2-en-1-one]	26.2 nM	121 nM	904 nM
C#CC(=O)N1CCC(Oc2cnccc2-c2[nH]c3cccnc3c2-c2cc(C)ccc2F)C1 (racemic) [Example 125, 1-[(3RS)-3-({4-[3-(2-fluoro-5-methylphenyl)-1H-pyrrolo[3,2-b]pyridin-2-yl]pyridin-3-yl}oxy)pyrrolidin-1-yl]prop-2-yn-1-one]	80.8 nM	219 nM	1030 nM
C=CC(=O)N1CCCC[C@H]1COc1cnccc1-c1[nH]c2cccnc2c1-c1ccccc1 [Example 130, 1-[(2S)-2-({[4-(3-phenyl-1H-pyrrolo[3,2-b]pyridin-2-yl)pyridin-3-yl]oxy}methyl)piperidin-1-yl]prop-2-en-1-one]	337 nM		1620 nM
